Results taken from patent US20040087539A1, “Method of treating conditions related to platelet activity” (priority 2003, published 2004).
Entries after “also recorded” stand apart in the source; their conditions may differ.

Legend:
[1] = tested on: CHO cells expressing human platelet receptors; experiment: Cell adhesion to immobilized vWF under flow; type: cell-based, Chinese Hamster; conditions: for stable adhesion of vector-transfected 123 cells to vWF under flow / stable adhesion of PKG-expressing 123 cells (123PKG) to vWF under flow: FIG. 2C, sildenafil 5 μM; for stable adhesion of PKG-expressing 123 cells (123PKG) to vWF under flow: RGDS 4 mM, 8-bromo-cGMP not shown
Method: CHO cells expressing human platelet receptors were resuspended in modified Tyrode's buffer, pH 7.4, containing 1 mg/mi of bovine serum albumin (BSA) (see Ref. 46), and final cell count was 5×10^5/ml. […] Purified human vWF (10 μg/ml in 0.1 M NaHCO3, pH 8.3) was added to glass microcapillary tubes (inner diameter of 1.33 mm and a length of 7.2 cm), and incubated at 4° C. for 20 h. The vWF-coated microcapillary tubes then were incubated with 5% BSA. After washing, the cell suspension was aspirated through the tube by a syringe pump (Harvard Apparatus Inc.) at desired shear rates for 1.2 minutes and washed with modified Tyrode's buffer for additional 10 minutes at the same shear rates to remove transiently adherent cells. The experiments were continuously recorded on videotape using a video cassette recorder (model 9500, Sony). The number of stably adherent cell on immobilized vWF was counted on images obtained at 20 randomly selected positions in the vWF-coated tubes.
In FIGS. 2A and B, vWF-coated capillary tubes were perfused with equivalent numbers (5×10^5/ml) of CHO cells expressing recombinant GPLb-JX alone (1b9), integrin αIIbβ3 alone (2b3a), both GPIb-IX and integrin αIIbβ3 (123) or expressing GPJb-JX, integrin α^IIbβ3 and PKG Ia (123PKG) at a shear rates of 800 s^−1 (A) or 1500 s^−1 (B) for 1.2 minutes, and then perfused with the modified Tyrodes buffer for 10 minutes at the same shear rates to wash out transient adherent cells. The expenments were recorded in real time. Cells stably adherent to vWF-coated capillary tubes at 20 randomly selected locations were counted.
In FIG. 2C, vector-transfected 123 cells (123) or 123PKG cells also was perfused into vWF-coated glass capillary tubes as described in FIG. 2A in the absence or presence (+RGDS) of an integrin inhibitor RGDS peptide (4 mM) and in the absence (Control) or presence of cGMP-enhancing drug, sildenafil (5 μM). […] The experiments were repeated at least three times.

[2] = tested on: platelets; experiment: Ristocetin-induced vWF-dependent platelet aggregation in platelet-rich plasma; type: cell-based, human; conditions: PRP; agent added with subthreshold ristocetin (1 mg/mm [sic]) (or botrocetin); FIGS. 3B, 6A
Method: (§1) Fresh blood from healthy volunteers was anticoagulated with 1/7 volume of ACD (2.5% trisodium citrate, 2% dextrose and 1.5% citric acid). Platelets were washed with CGS buffer (sodium chloride 0.12 M, trisodium citrate 0.0129 M and d-glucose 0.03 M, pH 6.5), resuspended in modified Tyrode's solution and allowed to incubate at 22° C. for 1 hours as previously described. In experiments using platelet-rich plasma (PRP), 1/10 volume of 3.8% trisodium citrate was used as anticoagulant. Platelet aggregation was measured using a turbidometric platelet aggregometer (Chrono-Log) at 37° C. vWF-dependent platelet aggregation was induced by addition of ristocetin or botrocetin to PRP. To differentiate CPIb-IX-mediated platelet agglutination from the second wave of integrin-dependent platelet aggregation, final concentrations of ristocetin were adjusted in each experiment to achieve a two-wave curve of aggregation. Washed platelets were used in platelet aggregation induced by a-thrombin (Enzyme Research Laboratories). To examine the effects of PKG, 100 μM of membrane permeable cGMP analogs, 8-bromo-cGMP or 8-dibutyl-cGMP (Calbiochem), or 1 μM sildenafil citrate (Pfizer) and added simultaneously with subthreshold concentrations of agonists. PKG inhibitors KT5823 (2 pM) and Rp-8PCPT-cGMP (0.2 mM) were preincubated with platelets at 37° C. for 5 minutes before addition of agonists.
In FIG. 3A, platelet rich-plasma (PRP) was preincubated at 37° C. for 5 mm with PKG inhibitors KT5823 (2 pM) or Rp-8pCPT-cGMP (0.2 μM). PRP was also incubated with DMSO (vehicle for KT5823), a PKA inhibitor, KT5720 (2 pM), or buffer (Control). The vWF modulator, ristocetin, was then added to induce vWF-GPIb-IX interaction. […] In FIG. 3B, a subthreshold concentration of ristocetin was added to PRP immediately followed by addition of 8-bromo-cGMP or buffer (Control). PRP also was preincubated with integrin inhibitor RGDS before adding ristocetin and 8-bromo-cGMP. In FIG. 3C, platelets were preincubated with or without PKG inhibitor KT5823, then allowed to spread on vWF-coated glass chamber slides. Platelets were stained with an anti-GPIb antibody, and fluorescein-labeled secondary antibody. The slides were imaged under a confocal microscope (magnification =630×).
(§2) In FIG. 6A, increasing concentrations of sildenafil or control 0.15 M NaCl solution were added to platelet-rich plasma followed by a subthreshold concentration of ristocetin. Platelet aggregation was recorded using a platelet aggregometer. In FIG. 6B, sildenafil or control buffer was added to washed platelets followed by addition of subthreshold doses of thrombin to induce platelet aggregation. It was noted that platelet aggregation occurs in the presence of sildenafil. The figure includes the representative results of at least three experiments.
(§3) In FIG. 7A, PRP was preincubated with 0.1 mM 8-bromo-cGMP for increasing lengths of time at 37° C. as indicated. The vWF modulator, ristocetin (1.25 mg/ml), then was added to induce platelet aggregation in a turbidometric platelet aggregometer. In FIG. 7B, PRP was preincubated with a high concentration of 8-bromo-cGMP (1 mM) for 5 minutes. Ristocetin then was added to induce platelet aggregation. In FIGS. 7C and 7D, washed platelets in modified Tyrode's solution were preincubated with 1 mM 8-bromo-cGMP (C), or various concentrations of 8-pCPT-cGMP (D) at 37° C. for 5 minutes. Thrombin (0.05 u/ml) then was added to induce platelet aggregation.

[3] = tested on: platelets; experiment: Low-dose α-thrombin-induced aggregation of washed platelets; type: cell-based, human; conditions: washed platelets; thrombin 0.02 units/ml; FIGS. 5B, 6B
Method: as §1
In FIG. 5A, washed platelets were preincubated with 40 pg/mi anti-GPIba monoclonal antibody SZ2, integrin inhibitor RGDS, or inhibitors of PKG, KT5823 (2 μM) or Rp-8pCPT-cGMP (0.2 mM) (Calbiochem), for 5 min. Platelets also were preincubated with DMSO (vehicle for KT5823), KT5720 or buffer (Control) as controls. α-Thrombin (0.05 units/mi) then was added to induce platelet aggregation. Nonspecific JgG and RGES peptides also were examined as additional controls, but had no effect (not shown). In FIG. 5B, a subthreshold dose of thrombin was added to platelets immediately followed by addition of PKG activator 8-bromo-cGMP or buffer (Control). Shown in the figure are the representative results of at least three experiments.
as §2, §3

[4] = tested on: platelets; experiment: Platelet aggregation/activation in vitro with sildenafil by itself; type: cell-based, human
[5] = tested on: platelets; conditions: agonists ADP, collagen, A23 187, U46619, platelet activating factor; Ref. 38; cited from earlier work
[6] = clinical reports, Refs. 39-42; cited from earlier work
[7] = identical flow conditions, not shown

With CCCc1nn(C)c2c(=O)[nH]c(-c3cc(S(=O)(=O)N4CCN(C)CC4)ccc3OCC)nc12 [sildenafil] the “stable adhesion of vector-transfected 123 cells to vWF under flow” value [1] was “enhancing effects”, the “stable adhesion of PKG-expressing 123 cells (123PKG) to vWF under flow” value [1] was “enhanced” and the “stable adhesion of PKG-expressing 123 cells (123PKG) to vWF under flow” value ([1]; listed as Sildenafil) was “significantly increased”. The “stable adhesion of vector-transfected 123 cells to vWF under flow” value ([1]; listed as Sildenafil) was “significantly increased”, the “stable adhesion of 1b9 cells (GPIb-IX alone) under flow” value [1, 7] was “no effect” and the “stable adhesion of 2b3a cells (integrin αIIbβ3 alone) under flow” value [1, 7] was “no effect”. For the same compound, the “platelet aggregation together with a subthreshold concentration of ristocetin” value [2] was “induces platelet aggregation”, the “platelet aggregation together with a subthreshold concentration of thrombin” value [3] was “induces platelet aggregation” and the “platelet aggregation in vitro” value ([4]; sildenafil, not shown) was “did not inhibit”. For the same compound, the “platelet activation by sildenafil by itself” value ([4]; without platelet agonist) was “not sufficient to cause platelet activation”, the “platelet activation in vitro, sildenafil alone” value [5] was “did not inhibit; also recorded: does not inhibit” and the “thrombotic events (myocardial infarction and cerebral thrombosis) in some patients” value [6] was “associated with severe thrombotic events”.
